Like-named read-outs stand apart in the source and are kept apart here.
Key:
[1] = test system: melanoma and prostate cancer cell lines; assay: Antiproliferative activity summarised over the cell line panel (range or average); assay type: cell-based; details: for antiproliferative activity in words: Tables 1-3
[2] = test system: PC-3 human prostate cancer cell line; assay: cells; details: Homo sapiens
From the text: Cells were stained with SRB solution.

[3] = Tables 1-2, read-out: IC50 (range or bound over tested cell lines)
[4] = read-out: IC50 PC-3, SRB assay, prostate cancer PC-3
[5] = read-out: IC50 ± SEM, PC-3, Table 13
[6] = Tables 11-13, read-out: IC50 (average of all seven cell lines)
[7] = range over prostate cancer cell lines, read-out: IC50 range against prostate cancer cells

COc1cc(C(=O)N2CCC(c3ccccc3)CC2)cc(OC)c1OC [1g, (4-Phenylpiperidin-1-yl)(3,4,5-trimethoxyphenyl)methanone]
IC50 [1, 3]: > 20000 nM

COc1cc(C(=O)c2cc(-c3ccccc3)ncn2)cc(OC)c1OC [1b, (6-Phenylpyrimidin-4-yl)(3,4,5-trimethoxyphenyl)methanone]
IC50 [2, 4]: 8300 nM | IC50 [1, 3]: 3700 to 8300 nM

COc1cc(/C(=N/O)c2csc(-c3ccccc3)n2)cc(OC)c1OC [2e-cis, (Z)-(2-Phenylthiazol-4-yl)(3,4,5-trimethoxyphenyl)methanone oxime]
IC50 [2, 4]: 120 nM | fold more activity than anti-isomer ([1]; 2e-cis vs 2e-trans): 10 fold | IC50 [1, 3]: 100 to 300 nM

COc1cc(C(=O)c2cn(S(=O)(=O)c3ccccc3)c(-c3cc(OC)c(OC)c(OC)c3)n2)cc(OC)c1OC [11ea, (1-(phenylsulfonyl)-2-(3,4,5-trimethoxyphenyl)-1H-imidazol-4-yl)(3,4,5-trimethoxyphenyl)methanone]
IC50 [2, 5]: > 10000 nM | IC50 [1, 6]: 1000 to 50000 nM

COc1cc(C(=O)c2csc(-c3ccccc3)c2)cc(OC)c1OC [1f, (5-Phenylthiophen-3-yl)(3,4,5-trimethoxyphenyl)methanone]
IC50 [2, 4]: 12 nM | IC50 [1, 7]: 12 to 35 nM

O=C(c1ccc(F)cc1)c1cn(S(=O)(=O)c2ccccc2)c(-c2ccccc2C(F)(F)F)n1 [11ib, (1-(phenylsulfonyl)-2-(2-(trifluoromethyl)phenyl)-1H-imidazol-4-yl)(4-fluorophenyl)methanone]
IC50 [2, 5]: > 10000 nM | IC50 [1, 6]: 1000 to 50000 nM

COc1cc(C(=O)c2ccc(-c3ccccc3)o2)cc(OC)c1OC [1d, (5-Phenylfuran-2-yl)(3,4,5-trimethoxyphenyl)methanone]
IC50 [2, 4]: 21 nM | IC50 [1, 7]: 12 to 35 nM

COc1cc(/C(=N\O)c2csc(-c3ccccc3)n2)cc(OC)c1OC [2e-trans, (E)-(2-Phenylthiazol-4-yl)(3,4,5-trimethoxyphenyl)methanone oxime]
IC50 [2, 4]: > 10000 nM | IC50 [1, 3]: > 10000 nM

COc1cc(C(=O)c2cc(-c3ccccc3)on2)cc(OC)c1OC [1i, (5-Phenylisoxazol-3-yl)(3,4,5-trimethoxyphenyl)methanone]
IC50 [1, 3]: > 10000 nM

COc1cc(C(=O)c2cccc(-c3ccccc3)c2)cc(OC)c1OC [1a, Biphenyl-3-yl(3,4,5-trimethoxyphenyl)methanone]
antiproliferative activity in words [1]: hundreds of nanomolar range

COc1cc(C(=O)[C@H]2COC(c3ccccc3)=N2)cc(OC)c1OC [35a, (2R)-(2-Phenyl-4,5-dihydro-oxazol-4-yl)-(3,4,5-trimethoxy-phenyl)-methanone]
antiproliferative activity in words [1]: hundreds of nanomolar range

COc1cc(C(=O)c2csc(-c3ccc4[nH]ccc4c3)n2)cc(OC)c1OC [66a]
IC50 [2, 4]: 7 nM | IC50 ([1]; read-out: IC50 (range over tested cell lines)): 7 to 25 nM

COc1ccc(-c2nc(C(=O)c3ccc(F)cc3)cn2S(=O)(=O)c2ccccc2)cc1OC [11hb, (2-(3,4-dimethoxyphenyl)-1-(phenylsulfonyl)-1H-imidazol-4-yl)(4-fluorophenyl)methanone]
IC50 [2, 5]: 10000 nM | IC50 [1, 6]: 1000 to 50000 nM

COc1cc(C(=O)c2cn(S(=O)(=O)c3ccccc3)c(-c3ccccc3C(F)(F)F)n2)cc(OC)c1OC [11ia, (1-(phenylsulfonyl)-2-(2-(trifluoromethyl)phenyl)-1H-imidazol-4-yl)(3,4,5-trimethoxyphenyl)methanone]
IC50 [2, 5]: > 10000 nM | IC50 [1, 6]: 1000 to 50000 nM

COc1cc(-c2nc(C(=O)c3ccc(F)cc3)c[nH]2)cc(OC)c1OC [12eb]
IC50 [1, 6]: 1000 to 50000 nM

COc1cc(C(=O)c2cnc(-c3ccccc3)s2)cc(OC)c1OC [1e, (2-Phenylthiazol-5-yl)(3,4,5-trimethoxyphenyl)methanone]
IC50 [1, 3]: > 10000 nM

COc1cc(C(O)c2csc(-c3ccccc3)n2)cc(OC)c1OC (stereo not drawn) [2b, (2-Phenylthiazol-4-yl)(3,4,5-trimethoxyphenyl)methanol]
IC50 [2, 4]: > 10000 nM | antiproliferative activity in words [1]: inactive

COc1cc(C(=O)c2coc(-c3ccccc3)n2)cc(OC)c1OC [36a, (2-Phenyl-oxazol-4-yl)-(3,4,5-trimethoxy-phenyl)-methanone]
antiproliferative activity in words [1]: hundreds of nanomolar range
